Results published in patent US20040156869A1, “2-substituted quinazolin-4-ylamine analogues” (Neurogen Corporation, priority 2002, published 2004).

Each compound was assayed against human capsaicin receptor (VR1) (Homo sapiens, UniProt Q8NER1) (assay: Capsaicin receptor binding assay ([3H]RTX competition, VR1-transfected HEK293 membranes)).
Sequence of human capsaicin receptor (VR1) (Q8NER1 whole entry): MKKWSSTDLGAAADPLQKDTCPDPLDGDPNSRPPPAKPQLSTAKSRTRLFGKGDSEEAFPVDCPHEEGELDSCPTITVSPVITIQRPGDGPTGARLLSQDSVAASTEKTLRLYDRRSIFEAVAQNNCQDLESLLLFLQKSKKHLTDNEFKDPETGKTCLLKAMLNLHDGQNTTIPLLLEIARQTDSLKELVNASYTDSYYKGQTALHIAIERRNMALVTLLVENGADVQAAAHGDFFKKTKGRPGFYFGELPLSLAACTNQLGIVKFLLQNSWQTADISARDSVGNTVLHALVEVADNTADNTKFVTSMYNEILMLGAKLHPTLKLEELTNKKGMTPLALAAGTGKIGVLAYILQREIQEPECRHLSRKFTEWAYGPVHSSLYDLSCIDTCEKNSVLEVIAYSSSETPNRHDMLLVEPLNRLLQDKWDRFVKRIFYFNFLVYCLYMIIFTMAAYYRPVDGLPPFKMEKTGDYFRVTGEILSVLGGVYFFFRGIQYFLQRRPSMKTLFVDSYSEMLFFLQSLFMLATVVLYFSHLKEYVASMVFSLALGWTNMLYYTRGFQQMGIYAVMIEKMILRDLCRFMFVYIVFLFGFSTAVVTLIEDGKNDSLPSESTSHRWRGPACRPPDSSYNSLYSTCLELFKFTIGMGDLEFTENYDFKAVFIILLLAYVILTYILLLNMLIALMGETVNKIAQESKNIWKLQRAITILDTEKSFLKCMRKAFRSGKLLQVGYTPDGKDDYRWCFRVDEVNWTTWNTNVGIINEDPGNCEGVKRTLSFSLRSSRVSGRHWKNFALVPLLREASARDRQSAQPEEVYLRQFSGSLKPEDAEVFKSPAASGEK

Ki, < 1000 nM:
O=C(NCCCN1CCOCC1)c1nc(Nc2ccc(C(F)(F)F)cc2)c2ccc(-c3ncccc3C(F)(F)F)nc2n1 [Compound 443, 4-(4-Trifluoromethyl-phenylamino)-7-(3-trifluoromethyl-pyridin-2-yl)-pyrido[2,3-d]pyrimidine-2-carboxylic acid (3-morpholin-4-yl-propyl)-amide]
CC(=O)C(C)(C)c1ccc(Nc2nc(COCC(C)C)nc3nc(-c4ncccc4C(F)(F)F)ccc23)cc1 [Compound 211, 3-{4-[2-Isobutoxymethyl-7-(3-trifluoromethyl-pyridin-2-yl)-pyrido[2,3-d]pyrimidin-4-ylamino]-phenyl}-3-methyl-butan-2-one]
CCN(CC)CCOCc1nc(Nc2ccc(C(F)(F)F)nc2)c2ccc(-c3ncccc3C(F)(F)F)cc2n1 [Compound 29, [2-(2-Diethylamino-ethoxymethyl)-7-(3-trifluoromethyl-pyridin-2-yl)-quinazolin-4-yl]-(6-trifluoromethyl-pyridin-3-yl)-amine]
CC(c1ccc(Nc2nc(CN3CCN(C)CC3)nc3cc(-c4ncccc4C(F)(F)F)ccc23)cc1)C(F)(F)F (centres unmarked) [Compound 526, [2-(4-Methyl-piperazin-1-ylmethyl)-7-(3-trifluoromethyl-pyridin-2-yl)-quinazolin-4-yl]-[4-(2,2,2-trifluoro-1-methyl-ethyl)-phenyl]-amine]
COCCN(CCOC)Cc1nc(Nc2ccc(C(F)(F)F)cc2)c2ncc(-c3ncccc3C(F)(F)F)cc2n1 [Compound 670, [2-{[Bis-(2-methoxy-ethyl)-amino]-methyl}-7-(3-trifluoromethyl-pyridin-2-yl)-pyrido[3,2-d]pyrimidin-4-yl]-(4-trifluoromethyl-phenyl)-amine]
CCOC(=O)COCc1nc(Nc2ccc(C(F)(F)F)cc2)c2ccc(-c3ncccc3C(F)(F)F)cc2n1 [Compound 169, [4-(4-Trifluoromethyl-phenylamino)-7-(3-trifluoromethyl-pyridin-2-yl)-quinazolin-2-ylmethoxy]-acetic acid ethyl ester]
Cc1cc(Nc2nc(COCC(C)C)nc3nc(-c4ncccc4C)ccc23)ccc1C(F)(F)F [Compound 183, [2-Isobutoxymethyl-7-(3-methyl-pyridin-2-yl)-pyrido[2,3-d]pyrimidin-4-yl]-(3-methyl-4-trifluoromethyl-phenyl)-amine]
COCc1nc(Nc2ccc(C(C)C)cc2)c2ccc(-c3ncccc3C)nc2n1 [Compound 96, (4-Isopropyl-phenyl)-[2-methoxymethyl-7-(3-methyl-pyridin-2-yl)-pyrido[2,3-d]pyrimidin-4-yl]-amine]
CCOCc1nc(Nc2ccc(C(C)(C)C#N)cc2)c2ccc(-c3ncccc3C(F)(F)F)nc2n1 [Compound 225, 2-{4-[2-Ethoxymethyl-7-(3-trifluoromethyl-pyridin-2-yl)-pyrido[2,3-d]pyrimidin-4-ylamino]-phenyl}-2-methyl-propionitrile]
COCc1nc(Nc2ccc(C(C)(C)C#N)cc2)c2ccc(-c3ncccc3C)nc2n1 [Compound 98, 2-{4-[2-Methoxymethyl-7-(3-methyl-pyridin-2-yl)-pyrido[2,3-d]pyrimidin-4-ylamino]-phenyl}-2-methyl-propionitrile]
CCc1ccc(Nc2nc(CN3C[C@H](C)O[C@@H](C)C3)nc3cc(-c4ncccc4C(F)(F)F)ccc23)cc1 [Compound 641, (S,S)-[2-(2,6-Dimethyl-morpholin-4-ylmethyl)-7-(3-trifluoromethyl-pyridin-2-yl)-quinazolin-4-yl]-(4-ethyl-phenyl)-amine]
FC(F)(F)c1ccc(Nc2nc(CCN3CCC4(CC3)OCCO4)nc3cc(-c4ncccc4C(F)(F)F)ccc23)cc1 [Compound 407, [2-[2-(1,4-Dioxa-8-aza-spiro[4.5]dec-8-yl)-ethyl]-7-(3-trifluoromethyl-pyridin-2-yl)-quinazolin-4-yl]-(4-trifluoromethyl-phenyl)-amine]
COCc1nc(Nc2ccc(C(C)(C)C)cc2)c2ccc(-c3ncccc3Cl)nc2n1 [Compound 59, (4-tert-Butyl-phenyl)-[7-(3-chloro-pyridin-2-yl)-2-methoxymethyl-pyrido[2,3-d]pyrimidin-4-yl]-amine]
CC1CCN(CCc2nc(Nc3ccc(C(F)(F)F)cc3)c3ccc(-c4ncccc4C(F)(F)F)cc3n2)CC1 [Compound 401, [2-(4-Methyl-piperidin-1-ylethyl)-7-(3-trifluoromethyl-pyridin-2-yl)-quinazolin-4-yl]-(4-trifluoromethyl-phenyl)-amine]
Cc1cccnc1-c1ccc2c(Nc3ccc(C(F)(F)F)cc3)nc(C3CCOC3)nc2n1 (centres unmarked) [Compound 174, [7-(3-Methyl-pyridin-2-yl)-2-(tetrahydro-furan-3-yl)-pyrido[2,3-d]pyrimidin-4-yl]-(4-trifluoromethyl-phenyl)-amine]
CCOCc1nc(Nc2ccc(C3(C#N)CCC3)cc2)c2ccc(-c3ncccc3Cl)nc2n1 [Compound 150, 1-{4-[7-(3-Chloro-pyridin-2-yl)-2-ethoxymethyl-pyrido[2,3-d]pyrimidin-4-ylamino]-phenyl}-cyclobutanecarbonitrile]
OCC1CCCCN1Cc1nc(Nc2ccc(C(F)(F)F)cc2)c2ccc(-c3ncccc3C(F)(F)F)cc2n1 (centres unmarked) [Compound 497, {1-[4-(4-Trifluoromethyl-phenylamino)-7-(3-trifluoromethyl-pyridin-2-yl)-quinazolin-2-ylmethyl]piperidin-2-yl}-methanol]
C[C@@H]1CN(Cc2nc(Nc3ccc(S(=O)(=O)C(F)(F)F)cc3)c3ccc(-c4ncccc4Cl)cc3n2)C[C@H](C)O1 [Compound 602, [7-(3-Chloro-pyridin-2-yl)-2-(2,6-dimethyl-morpholin-4-ylmethyl)-quinazolin-4-yl]-(4-trifluoromethanesulfonyl-phenyl)-amine (cis)]
O=C(NCC1CC1)c1nc(Nc2ccc(C(F)(F)F)cc2)c2ccc(-c3ncccc3C(F)(F)F)nc2n1 [Compound 453, 4-(4-Trifluoromethyl-phenylamino)-7-(3-trifluoromethyl-pyridin-2-yl)-pyrido[2,3-d]pyrimidine-2-carboxylic acid cyclopropylmethyl-amide]
FC(F)(F)c1ccc(Nc2nc(CCN3CCCCCC3)nc3cc(-c4ncccc4C(F)(F)F)ccc23)cc1 [Compound 402]
CCCOC(=O)N1CCN(CCc2nc(Nc3ccc(C(F)(F)F)cc3)c3ccc(-c4ncccc4C(F)(F)F)cc3n2)CC1 [Compound 585, 4-{2-[4-(4-Trifluoromethyl-phenylamino)-7-(3-trifluoromethyl-pyridin-2-yl)-quinazolin-2-yl]-ethyl}-piperazine-1-carboxylic acid propyl ester]
O=C(c1nc(Nc2ccc(C(F)(F)F)cc2)c2ccc(-c3ncccc3C(F)(F)F)nc2n1)N1CCOCC1 [Compound 461, Morpholin-4-yl-[4-(4-trifluoromethyl-phenylamino)-7-(3-trifluoromethyl-pyridin-2-yl)-pyrido[2,3-d]pyrimidin-2-yl]-methanone]
CN(C(C)(C)C)S(=O)(=O)c1ccc(Nc2nc(CO)nc3cc(-c4ncccc4C(F)(F)F)ccc23)cc1 [Compound 187, N-tert-Butyl-4-[2-hydroxymethyl-7-(3-trifluoromethyl-pyridin-2-yl)-quinazolin-4-ylamino]-N-methyl-benzenesulfonamide]
CCCN(Cc1nc(Nc2ccc(C(F)(F)F)cc2)c2ncc(-c3ncccc3C(F)(F)F)cc2n1)CC1CC1 [Compound 665, [2-[(Cyclopropylmethyl-propyl-amino)-methyl]-7-(3-trifluoromethyl-pyridin-2-yl)-pyrido[3,2-d]pyrimidin-4-yl]-(4-trifluoromethyl-phenyl)-amine]
CCc1ccc(Nc2nc(COC)nc3cc(-c4ncccc4C(F)(F)F)cnc23)cc1 [Compound 52, (4-Ethyl-phenyl)-[2-methoxymethyl-7-(3-trifluoromethyl-pyridin-2-yl)-pyrido[3,2-d]pyrimidin-4-yl]-amine]
COCc1nc(Nc2ccc(C(C)(C)C)cc2)c2ccc(-c3ncccc3C(F)(F)F)cc2n1 [Compound 73, (4-tert-Butyl-phenyl)-[2-methoxymethyl-7-(3-trifluoromethyl-pyridin-2-yl)-quinazolin-4-yl]-amine]
CN(CCc1nc(Nc2ccc(C(F)(F)F)cc2)c2ccc(-c3ncccc3C(F)(F)F)cc2n1)C1CCCCC1 [Compound 424, [2-[(Cyclohexyl-methyl-amino)-ethyl]-7-(3-trifluoromethyl-pyridin-2-yl)-quinazolin-4-yl]-(4-trifluoromethyl-phenyl)-amine]
COCc1nc(Nc2ccc(C(F)F)cc2)c2ccc(-c3ncccc3Cl)nc2n1 [Compound 243, [7-(3-Chloro-pyridin-2-yl)-2-methoxymethyl-pyrido[2,3-d]pyrimidin-4-yl]-(4-difluoromethyl-phenyl)-amine]
CC(C)(C)c1ccc(Nc2nc(C(=O)O)nc3nc(-c4ncccc4C(F)(F)F)ccc23)cc1 [Compound 220, 4-(4-tert-Butyl-phenylamino)-7-(3-trifluoromethyl-pyridin-2-yl)-pyrido[2,3-d]pyrimidine-2-carboxylic acid]
CC(C)COCc1nc(Nc2ccc(C(C)C(F)(F)F)cc2)c2ccc(-c3ncccc3C(F)(F)F)nc2n1 (centres unmarked) [Compound 232, [2-Isobutoxymethyl-7-(3-trifluoromethyl-pyridin-2-yl)-pyrido[2,3-d]pyrimidin-4-yl]-[4-(2,2,2-trifluoro-1-methyl-ethyl)-phenyl]-amine]
CCCN(CCC)Cc1nc(Nc2ccc(C(F)(F)F)nc2)c2ccc(-c3ncccc3C(F)(F)F)cc2n1 [Compound 373, [2-Dipropylaminomethyl-7-(3-trifluoromethyl-pyridin-2-yl)-quinazolin-4-yl]-(6-trifluoromethyl-pyridin-3-yl)-amine]
Cc1cccnc1-c1ccc2c(Nc3ccc(C(F)(F)F)cc3)nc(CN3C[C@@H](C)O[C@@H](C)C3)nc2c1 [Compound 618, [2-(2,6-Dimethyl-morpholin-4-ylmethyl)-7-(3-methyl-pyridin-2-yl)-quinazolin-4-yl]-(4-trifluoromethyl-phenyl)-amine (cis)]
